The values that follow are results of earlier work, collected in paper PMC8955938, “c-Myc Protein Level Affected by Unsymmetrical Bisacridines Influences Apoptosis and Senescence Induced in HCT116 Colorectal and H460 Lung Cancer Cells” (International Journal of Molecular Sciences, 2022).

On the set-up of this series: method as in PMID 26485768, PMID 17009029, PMID 21805041, PMID 30894570. The conditions noted are these: established in similar conditions; irinotecan colon cancer treatment, cisplatin lung cancer treatment; cited from earlier work.

For orientation: IC50 means the concentration needed to halve the response being measured. Turning to `N.N.[Cl][Pt][Cl]` [cisplatin], the IC50 is approximately 5 µM. For the compound `CCc1c2c(nc3ccc(OC(=O)N4CCC(N5CCCCC5)CC4)cc13)-c1cc3c(c(=O)n1C2)COC(=O)[C@]3(O)CC` [irinotecan], the half-inhibitory concentration (IC50) was approximately 5 µM.
